# Laboratory results: patent US11771692B2, “N-hydroxyethyl didehydroazapodophyllotoxins as GBP1 inhibitors and methods of overcoming treatment resistance in cancer” (The Board of Trustees of the Leland Stanford Junior …, priority 2018, dated 2023)
# Entries after “also recorded” stand apart in the source; their conditions may differ.
# Experiments:
# OVCAR8 cells [1] = test: Active mitochondrial mass (MitoTracker Red CMXRos) in OVCAR8 cells; assay type: cell-based
# Text: (§1) FIG. 4, panel A illustrates a histogram of cell cycle distribution of propidium iodide (PI)-stained cells. […] FIG. 4, panel C illustrates the effect of SU093 on cell cycle and cell death regulators analyzed by immunostaining. FIG. 4, panel D illustrates mitochondria stained with MitoTracker Red CMXRos and visualized by confocal microscopy indicating mitochondrial dysfunction in OVCAR8 cells. FIG. 4, panel E illustrates the effect of SU093 on active mitochondrial mass in OVCAR8 cells.
# (§2) Furthermore, OVCAR8 cells with overexpressed (OV) and knockdown (KD) of GBP1 gene were created (FIG. 3, panel D) and cell viability experiments were performed on GBP1-WT (wild-type), GBP1-OV and GBP1-KD OVCAR8 cells at different doses of SU093.
# DU145 = test: MTT cytotoxicity assay, DU145; assay type: cell-based; settings: Homo sapiens, DU-145, Prostate
# Text: (§3) It was observed that SU093 was highly cytotoxic for all cell lines tested with IC50 values in the nanomolar range.
# GBP1 [2] = test: cell-based reporter assay, OVCAR-8 stably transfected with GBP-1-luciferase; settings: OVCAR-8 GBP-1-luciferase
# Text: Exemplary compounds (1)-(17) and previously identified compound SU093 (Andreoli, M., Persico, M.; Kumar, A.; Orteca, N.; Kumar, V.; Pepe, A.; Mahalingam, S.; Alegria, A. E.; Petrella, L.; Sevciunaite, L.; Camperchioli, A.; Mariani, M.; Di Dato, A.; Novellino, E.; Scambia, G., Malhotra, S. V.; Ferlini, C.; Fattorusso, C., Identification of the First Inhibitor of the GBP1:PIM1 Interaction. Implications for the Development of a New Class of Anticancer Agents against Paclitaxel Resistant Cancer Cells. Journal of Medicinal Chemistry 2014, 57 (19), 7916-7932) were tested for GBP1 inhibition using a cell-based reporter assay in ovarian cancer cell line OVCAR-8 stably transfected with GBP-1-luciferase. Tables 1 and 2 below outlines the percentage of GBP1 expression in OVCAR-8 cells for each of the 17 compounds tested.
# GBP1 [3] = test: Confocal microscopy immunostaining of GBP1 and β-tubulin in OVCAR8 cells; assay type: cell-based; settings: OVCAR8, 1 nM SU093 for 6 h
# OVCAR8 cells [4] = test: Cell cycle analysis and cell cycle/cell death regulators in OVCAR8 cells; assay type: cell-based
# Text: as §1, §2
# It has been previously established that GBP1 expression has a definitive role in the resistance towards radiation therapy and taxane-based chemotherapy. The GBP1 inhibitor SU093 was tested in combination with radiation and paclitaxel (a well known taxane-based chemotherapeutic drug) for its potential in overcoming radiation therapy and taxane resistance. […] A cell cycle analysis experiment for radiation was performed with SU093 and combination treatment (FIG. 5, panel B). […] One of the mechanisms through which a drug can sensitize the effect of radiation is its ability to block G2/M phase of the cell cycle (Leonard, C. E.; Chan, D. C.; Chou, T. C.; Kumar, R.; Bunn, P. A., Paclitaxel enhances in vitro radiosensitivity of squamous carcinoma cell lines of the head and neck. Cancer Research 1996, 56 (22), 5198-5204). […]
# GBP1 [5] = test: Immunoblotting and cycloheximide chase of GBP1 protein in SCC-90 HNC cells; assay type: cell-based
# Text: The potential for GBP1 inhibition and radiosensitzation in head and neck cancer cells was also investigated.
# [6] = test system: Luciferase-tagged OVCAR8 cells; test: Viability of luciferase-tagged OVCAR8 cells in combination with radiation or paclitaxel; assay type: cell-based
# Method: FIG. 5, panels A-E: illustrates the sensitizing effect of SU093 on the viability of luciferase-tagged OVCAR8 cells in combination with radiation and chemotherapy treatment. FIG. 5, panel A graphs cells that were pre-treated with 0, 0.5 and 1 nM SU093 for 24 h followed by 0, 5 & 10 Gy radiation treatment and incubated for 96 h. FIG. 5, panel B illustrates cell cycle analysis of SU093 and radiation combination treatment in OVCAR8. FIG. 5, panel C illustrates the effect of SU093 on OVCAR8 cells in hypoxic condition (0.5% O2) FIG. 5, panel D graphs hypoxic cells that were pre-treated with SU093 for 24 h followed by 5 and 10 Gy radiation.
# It has been previously established that GBP1 expression has a definitive role in the resistance towards radiation therapy and taxane-based chemotherapy. The GBP1 inhibitor SU093 was tested in combination with radiation and paclitaxel (a well known taxane-based chemotherapeutic drug) for its potential in overcoming radiation therapy and taxane resistance. […] A cell cycle analysis experiment for radiation was performed with SU093 and combination treatment (FIG. 5, panel B). […] One of the mechanisms through which a drug can sensitize the effect of radiation is its ability to block G2/M phase of the cell cycle (Leonard, C. E.; Chan, D. C.; Chou, T. C.; Kumar, R.; Bunn, P. A., Paclitaxel enhances in vitro radiosensitivity of squamous carcinoma cell lines of the head and neck. Cancer Research 1996, 56 (22), 5198-5204). G2/M is the most radiosensitive phase in the cell cycle and arresting the cell population in this phase would likely sensitize them to the next cycle of radiation and enhance cell death (Pawlik, T. M.; Keyomarsi, K., Role of cell cycle in mediating sensitivity to radiotherapy. International Journal of Radiation Oncology Biology Physics 2004, 59 (4), 928-942; Nambiar, D. K.; Rajamani, P.; Deep, G.; Jain, A. K.; Agarwal, R.; Singh, R. P., Silibinin Preferentially Radiosensitizes Prostate Cancer by Inhibiting DNA Repair Signaling. Molecular Cancer Therapeutics 2015, 14 (12), 2722-2734). […] Bearing in mind that solid tumors create a hypoxic microenvironment, these findings provided a very compelling case for the clinical application of the subject GBP1 inhibitors as a treatment for re-sensitizing radiation therapy in refractory cancers.
# The cytotoxic effect of SU093 and paclitaxel combination treatment was also studied (FIG. 5, panel E).
# [7] = test system: GBP1-OV and GBP1-KD OVCAR8 cells; test: MTT cell viability in GBP1-WT, GBP1-OV and GBP1-KD OVCAR8 cells; assay type: cell-based
# Text: (§4) FIG. 3, panels A-E. FIG. 3, panel A illustrates the effects of SU093 on survival of human normal HEK293 cell line and ovarian cancer cell lines OVCAR8 & SKOV3 cells via MTT assay. FIG. 3, panel B illustrates the effect of SU093 on GBP1 and PIM1 expression in OVCAR8 cells. […] FIG. 3, panel D illustrates quantification of overexpression and knockdown of GBP1 gene in stably transfected OVCAR8 cells. FIG. 3, panel E illustrates cytotoxicity of SU093 as evaluated in GBP1-OV, GBP1-WT and GBP1-KD OVCAR8 via MTT assay.
# as §2
# MCF7 = test: MTT cytotoxicity assay, MCF7; assay type: cell-based; settings: Homo sapiens, Breast
# Text: as §3
# SSC-90 = test: MTT cytotoxicity assay, SSC-90; assay type: cell-based; settings: Head and Neck, SSC-90, MTT assay
# Text: as §3
# SKOV3 = test: MTT cytotoxicity assay, SKOV3; assay type: cell-based; settings: Homo sapiens, SK-OV-3; SKOV3 ovarian cancer cell line
# Text: as §4, §2
smiles,measurement,setting,value
COc1ccc2c(c1)N(CCO)C1=C(C(=O)OC1)C2c1ccccc1 (stereo not shown) [SU093],active mitochondrial mass,OVCAR8 cells [1],significantly diminished active mitochondrial mass
same,IC50,DU145,1.12 nM
same,% GBP1 expression OVCAR-8 @5 nM,GBP1 [2]; 5 nM,60.3%
same,% GBP1 expression OVCAR-8 @10 nM,GBP1 [2]; 10 nM,51.0%
same,GBP1 nuclear translocation and tubulin expression,GBP1 [3],inhibits the nuclear translocation of GBP1 protein and reduces the tubulin expression; also recorded: blocking its nuclear translocation and reducing tubulin expression
same,cell cycle distribution,"OVCAR8 cells [4]; OVCAR8, SU093 alone",G1 phase arrest; also recorded: progression from G1 to S phase was markedly inhibited
same,"cell cycle distribution, combination of SU093 and radiation","OVCAR8 cells [4]; OVCAR8, combination with radiation",G2/M phase arrest leading to apoptosis; also recorded: G2/M phase arrest leading to apoptotic cell death
same,cell cycle and cell death regulators,"OVCAR8 cells [4]; OVCAR8, cyclin D1, CDK2, Bax",reduction in cyclin D1 and CDK2 levels and elevation of the cell death regulator Bax
same,"GBP1 protein degradation, cyclohexamide chase",GBP1 [5]; SCC-90,degradation of GBP1 protein and reduction of its half-life
same,GBP1 protein expression,"GBP1 [5]; SCC-90, western blot, 24 h",inhibition in GBP1 expression; also recorded: inhibited GBP1 protein expression
same,"cell viability, pretreatment with SU093 then radiation",[6]; 5 and 10 Gy radiation,significant synergistic effect
same,cytotoxicity in hypoxic conditions,"[6]; OVCAR8, hypoxic (0.5% O2)",intrinsic cytotoxic effects
same,cytotoxic effect of SU093 and paclitaxel combination,"[6]; SU093 0.5 nM 24 h then paclitaxel 1, 5, 10 nM",synergistic cytotoxic effect; also recorded: enhanced cytotoxic effect as compared to paclitaxel alone
same,"cell death, co-treatment with radiotherapy in hypoxia","[6]; hypoxic OVCAR8, SU093 plus 5 and 10 Gy",significantly potentiated cell death
same,cytotoxicity compared to GBP1-WT,[7]; GBP1-KD OVCAR8 cells,enhanced cytotoxicity
same,cytotoxicity compared to GBP1-WT,[7]; GBP1-OV OVCAR8 cells,reduced cytotoxicity
same,IC50,MCF7,6.23 nM
same,IC50,SSC-90,3.23 nM
same,IC50,SKOV3,2.68 nM
